Patent US20230183305A1, “KERATIN BD-11, PREPARATION METHOD THEREFOR AND PHARMACEUTICAL COMPOSITION AND USE THEREOF” (INSTITUTE OF MATERIA MEDICA, CHINESE ACADEMY OF MEDICAL …, priority 2019, published 2023)
Counter-ions that a name gives are not always drawn. Marks after values point to notes of the source that are not given here.

Tests used:
[1] = tested on: ammonia water induced cough in ICR mice; assay: Antitussive test, cough induced by ammonia water in mice; type: in vivo, mouse
Description: • Animals: male ICR mice; • Drugs and reagents: dextromethorphan hydrobromide, ammonia water, 0.2% CMC-Na, protein BD-11; • Apparatus: Compressed nebulizer (403T type), balance (XS105DU type).
Experiment grouping: • Solvent control group; • Dextromethorphan 15 mg/kg group; • Protein BD-11, 20 mg/kg group, 50 mg/kg group.
Dextromethorphan and different doses of protein BD-11 (administration volume 10 ml/kg) were given orally in groups, and the solvent control group was given the same volume of distilled water. One hour later, mice were put into a sealed box and atomized 10% ammonia water for 10 seconds, and then observed and recorded the incubation period of cough in mice and the number of coughs in 2 minutes.
Record the time point of oral administration, the time point of atomization experiment, the incubation period of mice cough and the number of coughs within 2 minutes, respectively. The incubation period of cough refers to the number of seconds from the start of the atomization of ammonia to the occurrence of cough. The performance of coughing in mice is based on contraction of their abdominal muscles (breast contraction) and opening their mouths at the same time. Calculate the mean and standard error of each group of data, and use TTEST to compare the model group with other groups, and P<0.05 is considered as a significant difference.
Give dextromethorphan (15 mg/kg) and different doses of protein BD-11 (20 mg/kg, 50 mg/kg) in advance, One hour later, the mice were put into a sealed box and atomized 10% ammonia water for 10 seconds, and then the mice were observed and recorded the incubation period of coughing and the number of coughs within 2 minutes.

[2] = tested on: acetic acid writhing in ICR mice; assay: Acetic acid writhing test in ICR mice; type: in vivo, mouse
Description: • Animals: male ICR mice; • Drugs and reagents: aspirin, physiological saline, glacial acetic acid, protein BD-11.
Experiment grouping: • Model group; • Aspirin 300 mg/kg group; • Protein BD-11, 50 mg/kg group, 200 mg/kg group.
One day after the experimental animals adapt to the environment, Aspirin 300 mg/kg, protein BD-11 50 mg/kg, 200 mg/kg were given orally one hour in advance, and the administration volume was 10 ml/kg; Then, 0.6% acetic acid solution was injected intraperitoneally, and the incubation period (seconds) and frequency of writhing in the animal was observed within 15 minutes.
Calculate the mean and standard error of the data in each group. Compared with the model group by TTEST, P<0.05 was considered as statistically different.
One hour after oral administration of aspirin 300 mg/kg and different doses of protein BD-11 (50 mg/kg, 200 mg/kg), 0.6% acetic acid solution was intraperitoneally injected to observe the writhing incubation period and frequency of ICR mice.
0.6% acetic acid solution was injected into the abdominal cavity of mice, which caused deep and large area and long-term painful stimulation, causing the mice to writhe (the abdomen was contracted into an “S” shape, the trunk and hind legs were stretched, the buttocks were raised and creeping). The incubation time to start writhing and times of writhing in mice were used as the pain response indexs to determine whether the test sample had analgesic effect. […] Compared with the model group, P<0.05, which is statistically significant.

[3] = tested on: lipopolysaccharide (LPS) induced fever in SD rats; assay: Lipopolysaccharide (LPS) induced fever model in SD rats; type: in vivo, rat; conditions: aspirin 300 mg/kg oral
Description: • Animals: 230-260 grams of male SD rats; • Drugs: lipopolysaccharide (LPS, SIGMAL-2880), aspirin (SIGMA A2093), protein BD-11; • Instruments: electronic balance (SARTORIUS BP121S type), electronic clinical thermometer (CITIZEN CT-513W type).
Experiment grouping: • Normal control group; • Model group: lipopolysaccharide fever model; • Positive control group: Aspirin 300 mg/kg group; • Protein BD-11, 10 mg/kg group, 50 mg/kg group. Method: the method of intraperitoneal injection of Lipopolysaccharide to replicate rat fever model.
(§1) Preparation of experimental animals: After the experimental animals adapt to the experimental environment (temperature 22° C.±2° C., relative humidity 50%±2%) for 1 day. Pre-adaptation to measure rectal temperature at 8:00 and 15:00, rats were fasted and water was taken freely 12 h before experiment, and let the animal to empty its feces before measuring the rectal temperature. Apply petroleum jelly to the electronic thermometer probe before each temperature measurement. Insert the rat rectum 2 cm (can be marked at 2 cm to ensure that the depth of each insertion is consistent), and record the body temperature after the reading is stable.
Intraperitoneal injection of lipopolysaccharide to replicate rat fever model: The body temperature of the rats was measured before modeling. Qualified rats with a body temperature of 36.2-37.3° C. were selected and randomly divided into groups with 8 rats in each group. After oral administration of aspirin and different doses of protein BD-11, lipopolysaccharide (20 µg/kg, 2 ml/kg) was injected intraperitoneally immediately, and the normal control group was injected intraperitoneally with an equal volume of normal saline. The body temperatures of the rats were monitored after 2 hours for a total of 8 hours.
(§2) According to the body temperature measured at each time point on the day of the experiment, calculate the mean, standard deviation and standard error of the body temperature of each group of rats. The data of each group was compared with TTEST, and P<0.05 was considered as a significant difference.
Immediately after oral administration of aspirin (300 mg/kg), protein BD-11 (10 mg/kg, 50 mg/kg), intraperitoneal injection of 20 µg/kg lipopolysaccharide was performed to establish a model. The animal body temperature was monitored at 2 hours, 4 hours, 6 hours, and 8 hours after modeling.

[4] = tested on: yeast-induced fever model in SD rats; assay: Yeast-induced fever model in SD rats; type: in vivo, rat; conditions: aspirin 300 mg/kg oral
Description: • Animals: 230-260 grams of male SD rats;; • Drugs: yeast (OXOID LP0021), aspirin (SIGMA A2093), protein BD-11; • Instruments: electronic balance (SARTORIUS BP121S type), electronic clinical thermometer (CITIZEN CT-513W type).
Experiment grouping: • Normal control group; • Model group: yeast fever model; • Positive control group: Aspirin 300 mg/kg group; • Protein BD-11, 10 mg/kg group, 50 mg/kg group.
as §1
Subcutaneous injection of dry yeast to replicate rat fever model: The body temperature of the rats was measured before modeling. Qualified rats with a body temperature of 36.2-37.3° C. were selected and randomly divided into groups with 8 rats in each group. After oral administration of aspirin and different doses of protein BD-11, 20% yeast suspension (10 ml/kg) was injected subcutaneously immediately, and the normal control group was injected intraperitoneally with an equal volume of normal saline. The body temperatures of the rats were monitored after 2 hours for a total of 8 hours.
as §2
Immediately after oral administration of aspirin (300 mg/kg), protein BD-11 (10 mg/kg, 50 mg/kg), subcutaneous injection of 20% yeast was performed to establish a model. The animal body temperature was monitored at 2 hours, 4 hours, 6 hours, and 8 hours after modeling.

[5] = tested on: PLO-induced epilepsy in ICR mice; assay: Pilocarpine (PLO) induced convulsive epilepsy in mice; type: in vivo, mouse; parameters: mortality rate: unit not given here; conditions: Diazepam 2 mg/kg
Description: • Animals: male ICR mice; • Drugs: Pilocarpine HCl (PLO, pilocarpine, pilocarpine hydrochloride), Diazepam (diazepam tablets), protein BD-11.
Experiment grouping: • Model group: • Diazepam 2 mg/kg group; • Protein BD-11, 50 mg/kg group, 200 mg/kg group.
The drug was administered once in the afternoon the day before modeling, PLO-225 mg/kg (modeling agent) was injected intraperitoneally 1 hour after the test drug was administered intragastrically on the day of modeling. And positive drug can be administered once 20 minutes before modeling. Observe for 30 minutes after PLO injection.
Observation indicators: ①Seizure situation: the time of seizures from Grade II to Grade IV; (2)the time to death.
(§3) Seizure grade: Refer to Racine grading standard: Grade 0: No response; Grade I: manifested as twitching of facial muscles or the corners of the mouth; Grade II: can nod; Grade III: twitching of one limb; Grade IV: rigidity or body twitching; Grade V: generalized epilepsy (generalized tonic seizures).
Count the number of Grade IV seizures and deaths in each group of mice in the experiment; Grade II, III and IV incubation period. […] Chi-square test was used for statistics of the number of cases. The mean value and standard error of the incubation period were calculated, and TTEST was used to compare the model group with other groups. P<0.05 was considered as a significant difference.

[6] = tested on: PTZ-induced epilepsy in ICR mice; assay: Pentylenetetrazole (PTZ) induced epilepsy in mice; type: in vivo, mouse; conditions: Retigabine 60 mg/kg
Description: • Animals: male ICR mice; • Medicines: Pentylenetetrazol (PTZ), Retigabine, Protein BD-11.
Experiment grouping: • Model group; • Retigabine 60 mg/kg group; • Protein BD-11, 50 mg/kg group, 200 mg/kg group;
The drug was administered once in the afternoon the day before modeling, On the day of modeling, PTZ-65 mg/kg (modeling agent) was injected intraperitoneal 1 hour after the test drug was administered intragastrically, and the positive drug can be administered once half an hour before modeling. Continue to observe for 15 minutes after injection of PTZ.
Observation index: ①Seizure situation: the time of seizures from Grade III to […]; ②Death situation
as §3
Count the cases of seizures and deaths in each group of mice in the experiment; Grade III and IV incubation period. The incubation period of mice that have not attacked to Grade IV is recorded as the maximum of 900 seconds. Chi-square test was used for statistics of the number of cases. Calculate the mean and standard error of the incubation period. Use TTEST to compare the model group with other groups, and P<0.05 is considered as a significant difference.

[7] = Aspirin 300 mg/kg, P<0.05 vs model group
[8] = 2, 4, 6 and 8 hours after modeling, P<0.05 vs model group

COc1ccc2c(c1)[C@]13CCCC[C@@H]1[C@H](C2)N(C)CC3 [Dextromethorphan, dextromethorphan hydrobromide, reference compound]
Incubation period (cough) ([1]; Dextromethorphan 15 mg/kg oral, 10% ammonia water 10 s, X±SEM, n=9): 38.4 ± 4.5 s
Number of coughs ([1]; Dextromethorphan 15 mg/kg oral, within 2 minutes, X±SEM, n=9): 34.0±2.9
Incubation period and number of coughs vs solvent control group ([1]; dextromethorphan 15 mg/kg, P<0.05): significant improvement

CC(=O)Oc1ccccc1C(=O)O [aspirin, reference compound]
Effect on incubation period of writhing [2, 7]: significantly delay
Effect on times of writhing [2, 7]: reduce the times of writhing
Writhing incubation period ([2]; aspirin 300 mg/kg oral, 0.6% acetic acid i.p., n=13): 290.3 ± 37.0 s
Frequency of writhing ([2]; aspirin 300 mg/kg oral, within 15 minutes, n=13): 15.2 ± 2.9 times
Effect on the increase in body temperature of model rats [3, 8]: can effectively inhibit the increase in body temperature
Body temperature 2 hours after modeling ([3]; 2 h after LPS 20 µg/kg i.p., n=8): 36.8 ± 0.1 °C
Body temperature 4 hours after modeling ([3]; 4 h after LPS 20 µg/kg i.p., n=8): 36.9### °C
Body temperature 6 hours after modeling ([3]; 6 h after LPS 20 µg/kg i.p., n=8): 36.8## °C
Body temperature 8 hours after modeling ([3]; 8 h after LPS 20 µg/kg i.p., n=8): 36.9±0.1 °C
Effect on the increase in body temperature of model rats [4, 8]: can effectively inhibit the increase in body temperature
Body temperature 2 hours after modeling ([4]; 2 h after 20% yeast s.c., n=8): 37.0 ±0.1 °C
Body temperature 4 hours after modeling ([4]; 4 h after 20% yeast s.c., n=8): 37.0±0.1 °C
Body temperature 6 hours after modeling ([4]; 6 h after 20% yeast s.c., n=8): 37.0±0.1 °C
Body temperature 8 hours after modeling ([4]; 8 h after 20% yeast s.c., n=8): 37.0±0.1 °C

CN1C(=O)CN=C(c2ccccc2)c2cc(Cl)ccc21 [Diazepam, reference compound]
Cases of deaths ([5]; PLO 225 mg/kg i.p., 10 mice): 0
Grade IV seizure rate ([5]; PLO 225 mg/kg i.p., 10 mice): 0**
mortality rate ([5]; PLO 225 mg/kg i.p., 10 mice): 0
Cases of Grade IV ([5]; PLO 225 mg/kg i.p., 10 mice, 30 min observation): 0**
Grade II seizure incubation period ([5]; PLO model, mean±SEM): 109 ± 8 s
Grade III seizure incubation period ([5]; PLO model, mean±SEM): 182 ± 14 s
Grade IV seizure incubation period ([5]; PLO model, mean±SEM, no Grade IV recorded as maximum 1800 s): 1800 ± 0 s

CCOC(=O)Nc1ccc(NCc2ccc(F)cc2)cc1N [Retigabine, reference compound]
Cases of deaths ([6]; PTZ 65 mg/kg i.p., 10 mice): 0
Grade IV seizure rate ([6]; PTZ 65 mg/kg i.p., 10 mice): 20%**
mortality rate ([6]; PTZ 65 mg/kg i.p., 10 mice): 0
Cases of Grade IV ([6]; PTZ 65 mg/kg i.p., 10 mice, 15 min observation): 2**
Grade III seizure incubation period ([6]; PTZ model, mean±SEM): 83 ± 7 s
Grade IV seizure incubation period ([6]; PTZ model, mean±SEM, no Grade IV recorded as maximum 900 s): 745 ± 103 s
